Measurements reported in ChEMBL document CHEMBL1681686, “Discovery of N-methyl-1-(1-phenylcyclohexyl)methanamine, a novel triple serotonin, norepinephrine, and dopamine reuptake inhibitor” (Bioorg Med Chem Lett, 2011).

Columns and labels:
Assay type in all cases: ADME, organism-based
Conditions in all cases: in vivo; call rule not given here
[1] = test system: Brain; test: Drug uptake in mouse brain at 30 mg/kg, po; parameters: dose 30 mg/kg, route oral
[2] = test system: Plasma; test: Drug uptake in mouse plasma at 30 mg/kg, po; parameters: dose 30 mg/kg, route oral
[3] = test system: Plasma; test: Drug uptake in mouse plasma at 3 mg/kg, po; parameters: dose 3 mg/kg, route oral
[4] = test system: Plasma; test: Drug uptake in mouse plasma at 10 mg/kg, po; parameters: dose 10 mg/kg, route oral
[5] = test system: Brain; test: Drug uptake in mouse brain at 3 mg/kg, po; parameters: dose 3 mg/kg, route oral
[6] = test system: Brain; test: Drug uptake in mouse brain at 10 mg/kg, po; parameters: dose 10 mg/kg, route oral

## CNCC1(c2ccc(Cl)c(Cl)c2)CCCCC1
[1]
  Drug uptake: Active

## CNCC1(c2ccc(Cl)c(Cl)c2)CCCCC1.Cl
[1]
  Drug uptake: 7464 ng/g
[2]
  Drug uptake: 227 ng/mL
[3]
  Drug uptake: 11 ng/mL
[4]
  Drug uptake: 50 ng/mL
[5]
  Drug uptake: 546 ng/g
[6]
  Drug uptake: 2166 ng/g

## CNCC1(c2ccc3ccccc3c2)CCCCC1.Cl
[1]
  Drug uptake: 2175 ng/g
[2]
  Drug uptake: 120 ng/mL
[3]
  Drug uptake: 8 ng/mL
[4]
  Drug uptake: 21 ng/mL
[5]
  Drug uptake: 123 ng/g
[6]
  Drug uptake: 306 ng/g
